{"source": "ChEMBL document CHEMBL1921674", "about": "“Novel tricyclic inhibitors of IKK2: discovery and SAR leading to the identification of 2-methoxy-N-((6-(1-methyl-4-(methylamino)-1,6-dihydroimidazo[4,5-d]pyrrolo[2,3-b]pyridin-7-yl)pyridin-2-yl)methyl)acetamide (BMS-066)” (Bioorg Med Chem Lett, 2011)", "key": {"[1]": {"test": "Protein binding in human serum", "type": "ADME, cell-free", "settings": "read-out: PB (converted)"}, "[2]": {"test": "Protein binding in rat serum", "type": "ADME, cell-free", "settings": "read-out: PB (converted)"}, "[3]": {"test": "Cmax in Lewis rat at 10 mg/kg, po", "type": "ADME, organism-based", "parameters": "dose 10 mg/kg, route oral", "settings": "in vivo"}, "[4]": {"test": "Cmax in dog at 5 mg/kg, po", "type": "ADME, organism-based, Canis lupus familiaris", "parameters": "dose 5 mg/kg, route oral", "settings": "in vivo"}, "[5]": {"test": "AUC in dog at 5 mg/kg, po", "type": "ADME, organism-based, Canis lupus familiaris", "parameters": "dose 5 mg/kg, route oral", "settings": "plasma"}, "[6]": {"test": "Half life in dog at 1 mg/kg, iv", "type": "ADME, organism-based, Canis lupus familiaris", "parameters": "dose 1 mg/kg, route intravenous", "settings": "in vivo"}, "[7]": {"test": "Clearance in mouse at 2 mg/kg, iv", "type": "ADME, organism-based", "parameters": "dose 2 mg/kg, route intravenous", "settings": "in vivo"}, "[8]": {"test": "Volume of distribution at steady state in Lewis rat at 2 mg/kg, iv", "type": "ADME, organism-based", "parameters": "dose 2 mg/kg, route intravenous", "settings": "in vivo, read-out: Vdss"}, "[9]": {"test": "Volume of distribution at steady state in dog at 1 mg/kg, iv", "type": "ADME, organism-based, Canis lupus familiaris", "parameters": "dose 1 mg/kg, route intravenous", "settings": "in vivo, read-out: Vdss"}, "[10]": {"test": "Oral bioavailability in mouse at 3 mg/kg", "type": "ADME, organism-based", "settings": "in vivo"}, "[11]": {"test": "Oral bioavailability in dog at 5 mg/kg", "type": "ADME, organism-based, Canis lupus familiaris", "settings": "in vivo"}, "[12]": {"test": "AUC in Sprague-Dawley rat plasma at 2 mg/kg, iv after 8 hrs", "type": "ADME, organism-based", "parameters": "time < 8 hr, dose 2 mg/kg, route intravenous"}, "[13]": {"test": "AUC in Sprague-Dawley rat liver at 2 mg/kg, iv after 8 hrs", "type": "ADME, organism-based", "parameters": "time < 8 hr, dose 2 mg/kg, route intravenous"}, "[14]": {"test": "AUC in SJL mouse plasma at 8 mg/kg, iv after 8 hrs", "type": "ADME, organism-based", "parameters": "time < 8 hr, dose 8 mg/kg, route intravenous"}, "[15]": {"test": "AUC in SJL mouse liver at 8 mg/kg, iv after 8 hrs", "type": "ADME, organism-based", "parameters": "time < 8 hr, dose 8 mg/kg, route intravenous"}, "[16]": {"test": "AUC in SJL mouse intestine at 8 mg/kg, iv after 8 hrs", "type": "ADME, organism-based", "parameters": "time < 8 hr, dose 8 mg/kg, route intravenous"}, "Mus musculus [17]": {"system": "Mus musculus", "test": "Reduction in TNBS-induced colitis in intrarectally dosed mouse […] model assessed as decrease of body weight loss administered 1 day before TNBS challenge twice daily for 4 days", "type": "functional, organism-based"}, "Mus musculus [18]": {"system": "Mus musculus", "test": "Reduction in TNBS-induced colitis in intrarectally dosed mouse […] model assessed as decrease of colon length administered 1 day before TNBS challenge twice daily for 4 days", "type": "functional, organism-based"}, "Mus musculus [19]": {"system": "Mus musculus", "test": "Reduction in TNBS-induced colitis in mouse […] model assessed as decrease of body weight loss at 10 mg/kg, administered intrarectally 1 day before TNBS challenge twice daily for 4 days", "type": "functional, organism-based", "parameters": "dose 10 mg/kg"}, "Mus musculus [20]": {"system": "Mus musculus", "test": "Reduction in TNBS-induced colitis in mouse […] model assessed as decrease of body weight at 3 mg/kg, administered intrarectally 1 day before TNBS challenge twice daily for 4 days", "type": "functional", "parameters": "scale not given: the % may be the effect or the level left"}, "PBMC": {"system": "PBMC", "test": "Antiinflammatory activity in human PBMC assessed as inhibition of LPS-induced TNFalpha release treated for 5 mins before LPS challenge measured after 4 hrs by ELISA", "type": "functional, cell-based", "settings": "Homo sapiens, PBMC"}, "hERG (KCNH2)": {"target": "hERG (KCNH2) (Homo sapiens, UniProt Q12809)", "sequence (Q12809 whole entry)": "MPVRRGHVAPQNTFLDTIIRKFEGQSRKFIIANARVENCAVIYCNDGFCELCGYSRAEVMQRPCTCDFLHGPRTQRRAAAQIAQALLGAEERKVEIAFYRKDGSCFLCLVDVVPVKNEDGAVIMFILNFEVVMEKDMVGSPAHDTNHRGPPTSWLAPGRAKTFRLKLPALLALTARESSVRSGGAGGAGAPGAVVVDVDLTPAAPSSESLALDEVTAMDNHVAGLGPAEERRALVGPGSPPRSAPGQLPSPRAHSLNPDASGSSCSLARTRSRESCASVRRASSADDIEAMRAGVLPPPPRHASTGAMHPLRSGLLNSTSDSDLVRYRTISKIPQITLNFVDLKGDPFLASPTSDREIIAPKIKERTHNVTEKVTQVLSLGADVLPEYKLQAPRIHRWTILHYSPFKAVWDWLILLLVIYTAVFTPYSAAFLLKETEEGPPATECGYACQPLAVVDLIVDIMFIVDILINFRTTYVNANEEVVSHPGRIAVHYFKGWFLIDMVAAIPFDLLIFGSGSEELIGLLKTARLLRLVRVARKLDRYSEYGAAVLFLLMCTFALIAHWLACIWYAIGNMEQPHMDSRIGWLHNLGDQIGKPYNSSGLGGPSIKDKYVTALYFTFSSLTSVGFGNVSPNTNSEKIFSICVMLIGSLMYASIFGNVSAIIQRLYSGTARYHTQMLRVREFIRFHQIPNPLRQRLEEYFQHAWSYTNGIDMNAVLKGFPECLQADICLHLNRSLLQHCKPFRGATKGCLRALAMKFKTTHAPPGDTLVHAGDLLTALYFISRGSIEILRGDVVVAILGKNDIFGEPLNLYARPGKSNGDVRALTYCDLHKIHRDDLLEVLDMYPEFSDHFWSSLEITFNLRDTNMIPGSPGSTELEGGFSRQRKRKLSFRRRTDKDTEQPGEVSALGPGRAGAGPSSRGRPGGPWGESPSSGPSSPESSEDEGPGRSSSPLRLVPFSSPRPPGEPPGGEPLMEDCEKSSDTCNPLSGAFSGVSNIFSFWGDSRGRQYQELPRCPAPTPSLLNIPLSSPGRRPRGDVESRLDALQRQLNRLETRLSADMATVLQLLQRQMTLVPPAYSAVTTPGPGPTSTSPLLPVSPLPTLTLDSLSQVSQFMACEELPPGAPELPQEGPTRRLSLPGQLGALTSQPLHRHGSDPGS", "test": "Inhibition of human ERG at 30 uM by patch clamp assay"}, "Cytochrome P450 1A2": {"target": "Cytochrome P450 1A2 (Homo sapiens, UniProt P05177)", "test": "Inhibition of CYP1A2", "type": "ADME"}, "Cytochrome P450 2D6": {"target": "Cytochrome P450 2D6 (Homo sapiens, UniProt P10635)", "test": "Inhibition of CYP2D6", "type": "ADME"}, "Cytochrome P450 2C19": {"target": "Cytochrome P450 2C19 (Homo sapiens, UniProt P33261)", "test": "Inhibition of CYP2C19", "type": "ADME"}, "Cytochrome P450 3A4": {"target": "Cytochrome P450 3A4 (Homo sapiens, UniProt P08684)", "sequence (P08684 whole entry)": "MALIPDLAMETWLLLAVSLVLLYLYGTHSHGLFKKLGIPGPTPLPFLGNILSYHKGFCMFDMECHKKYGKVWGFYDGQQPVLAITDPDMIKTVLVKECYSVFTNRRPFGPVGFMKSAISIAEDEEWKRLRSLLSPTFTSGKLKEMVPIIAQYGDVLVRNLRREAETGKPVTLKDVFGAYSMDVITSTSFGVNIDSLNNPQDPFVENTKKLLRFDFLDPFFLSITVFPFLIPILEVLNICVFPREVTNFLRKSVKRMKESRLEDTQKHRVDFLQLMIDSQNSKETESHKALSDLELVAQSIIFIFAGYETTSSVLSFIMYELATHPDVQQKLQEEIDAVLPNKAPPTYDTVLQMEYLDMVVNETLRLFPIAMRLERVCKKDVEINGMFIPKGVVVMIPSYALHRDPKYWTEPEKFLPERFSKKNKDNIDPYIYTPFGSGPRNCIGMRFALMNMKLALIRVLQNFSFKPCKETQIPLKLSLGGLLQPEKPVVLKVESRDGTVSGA", "test": "Inhibition of CYP3A4", "type": "ADME"}, "Cytochrome P450 2C9": {"target": "Cytochrome P450 2C9 (Homo sapiens, UniProt P11712)", "sequence (P11712 whole entry)": "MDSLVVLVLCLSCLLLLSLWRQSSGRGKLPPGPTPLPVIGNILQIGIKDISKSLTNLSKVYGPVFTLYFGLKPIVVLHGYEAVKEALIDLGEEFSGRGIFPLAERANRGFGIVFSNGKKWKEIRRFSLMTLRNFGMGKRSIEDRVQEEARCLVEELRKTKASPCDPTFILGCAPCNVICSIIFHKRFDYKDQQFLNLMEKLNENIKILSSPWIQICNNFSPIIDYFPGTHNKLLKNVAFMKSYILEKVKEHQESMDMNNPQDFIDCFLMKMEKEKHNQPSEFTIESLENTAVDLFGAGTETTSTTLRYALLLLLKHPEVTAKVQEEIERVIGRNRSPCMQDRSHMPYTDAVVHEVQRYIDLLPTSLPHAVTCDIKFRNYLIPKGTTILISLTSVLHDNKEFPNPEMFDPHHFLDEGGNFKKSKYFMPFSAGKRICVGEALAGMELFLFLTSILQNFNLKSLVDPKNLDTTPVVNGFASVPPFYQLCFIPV", "test": "Inhibition of CYP2C9", "type": "ADME"}, "[21]": {"target": "Inhibitor of nuclear factor kappa-B kinase subunit beta (Homo sapiens) (UniProt O14920)", "test": "Inhibition of human IKK2 at 10 uM"}, "[22]": {"target": "Inhibitor of nuclear factor kappa-B kinase subunit alpha (Homo sapiens) (UniProt O15111)", "test": "Inhibition of IKK1 at 10 uM"}, "[23]": {"target": "Protein-tyrosine kinase 6 (Homo sapiens, UniProt Q13882)", "sequence (Q13882 whole entry, looked up)": "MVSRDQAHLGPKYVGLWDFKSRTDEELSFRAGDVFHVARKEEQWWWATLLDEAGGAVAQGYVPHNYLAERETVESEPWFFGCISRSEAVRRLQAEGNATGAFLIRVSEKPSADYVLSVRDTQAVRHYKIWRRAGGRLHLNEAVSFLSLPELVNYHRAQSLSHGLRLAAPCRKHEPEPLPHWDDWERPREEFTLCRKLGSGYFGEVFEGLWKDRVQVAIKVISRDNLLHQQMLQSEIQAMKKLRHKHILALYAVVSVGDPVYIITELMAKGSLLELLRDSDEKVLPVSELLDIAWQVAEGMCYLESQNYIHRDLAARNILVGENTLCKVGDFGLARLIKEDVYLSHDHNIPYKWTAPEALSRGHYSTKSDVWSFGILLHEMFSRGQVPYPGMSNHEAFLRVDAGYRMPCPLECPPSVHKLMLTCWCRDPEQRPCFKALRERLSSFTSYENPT", "test": "Inhibition of BRK at 10 uM"}, "[24]": {"target": "Ephrin type-A receptor 1 (Homo sapiens) (UniProt P21709)", "sequence (P21709 whole entry)": "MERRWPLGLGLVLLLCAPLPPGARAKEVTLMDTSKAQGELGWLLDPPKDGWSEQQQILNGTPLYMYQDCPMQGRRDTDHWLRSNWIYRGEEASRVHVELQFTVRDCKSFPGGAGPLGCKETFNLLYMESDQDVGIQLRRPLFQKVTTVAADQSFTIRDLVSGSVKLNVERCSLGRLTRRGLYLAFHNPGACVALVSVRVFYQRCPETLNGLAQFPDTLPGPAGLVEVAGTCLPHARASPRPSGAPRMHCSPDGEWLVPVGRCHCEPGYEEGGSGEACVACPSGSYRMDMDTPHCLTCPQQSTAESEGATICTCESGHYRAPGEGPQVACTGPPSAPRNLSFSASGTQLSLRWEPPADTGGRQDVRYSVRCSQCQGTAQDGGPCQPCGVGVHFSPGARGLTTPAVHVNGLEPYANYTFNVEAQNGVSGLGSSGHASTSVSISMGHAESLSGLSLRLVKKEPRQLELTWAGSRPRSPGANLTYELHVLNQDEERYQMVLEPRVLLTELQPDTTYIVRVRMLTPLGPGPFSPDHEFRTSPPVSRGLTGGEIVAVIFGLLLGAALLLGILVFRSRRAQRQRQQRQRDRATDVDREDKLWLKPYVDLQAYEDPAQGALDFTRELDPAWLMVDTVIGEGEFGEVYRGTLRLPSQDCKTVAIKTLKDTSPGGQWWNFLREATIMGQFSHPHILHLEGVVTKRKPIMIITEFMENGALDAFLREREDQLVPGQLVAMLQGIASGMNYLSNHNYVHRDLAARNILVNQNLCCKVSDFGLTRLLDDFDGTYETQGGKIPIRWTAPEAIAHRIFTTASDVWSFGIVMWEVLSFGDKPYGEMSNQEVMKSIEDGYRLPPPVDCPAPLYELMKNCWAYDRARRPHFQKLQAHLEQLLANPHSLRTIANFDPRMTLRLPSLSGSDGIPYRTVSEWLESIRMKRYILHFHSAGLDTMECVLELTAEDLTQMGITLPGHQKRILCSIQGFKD", "test": "Inhibition of EPHA1 at 10 uM"}, "[25]": {"target": "Ephrin type-B receptor 1 (Homo sapiens) (UniProt P54762)", "test": "Inhibition of EphB1 at 10 uM"}, "Mus musculus [26]": {"system": "Mus musculus", "test": "Reduction in TNBS-induced colitis in mouse […] model assessed as decrease of colon length at 3 mg/kg, administered intrarectally 1 day before TNBS challenge twice daily for 4 days", "type": "functional"}, "Mus musculus [27]": {"system": "Mus musculus", "test": "Reduction in TNBS-induced colitis in mouse […] model assessed as decrease in inflammation histological score at 10 mg/kg administered intrarectally 1 day before TNBS challenge twice daily for 4 days by hematoxylin-eosin staining relative to control", "type": "functional, organism-based", "parameters": "dose 10 mg/kg"}, "Mus musculus [28]": {"system": "Mus musculus", "test": "Reduction in TNBS-induced colitis in mouse […] model assessed as decrease in tissue damage at 10 mg/kg administered intrarectally 1 day before TNBS challenge twice daily for 4 days by hematoxylin-eosin staining relative to control", "type": "functional, organism-based", "parameters": "dose 10 mg/kg"}, "Ephrin type-A receptor 1": {"target": "Ephrin type-A receptor 1 (Homo sapiens, UniProt P21709)", "sequence (P21709 whole entry)": "as above", "test": "Inhibition of EPHA1"}, "Ephrin type-B receptor 1": {"target": "Ephrin type-B receptor 1 (Homo sapiens, UniProt P54762)", "test": "Inhibition of EphB1"}, "[29]": {"target": "T1, Vascular endothelial growth factor receptor 2 (Homo sapiens, UniProt P35968)", "T1 sequence (P35968 whole entry)": "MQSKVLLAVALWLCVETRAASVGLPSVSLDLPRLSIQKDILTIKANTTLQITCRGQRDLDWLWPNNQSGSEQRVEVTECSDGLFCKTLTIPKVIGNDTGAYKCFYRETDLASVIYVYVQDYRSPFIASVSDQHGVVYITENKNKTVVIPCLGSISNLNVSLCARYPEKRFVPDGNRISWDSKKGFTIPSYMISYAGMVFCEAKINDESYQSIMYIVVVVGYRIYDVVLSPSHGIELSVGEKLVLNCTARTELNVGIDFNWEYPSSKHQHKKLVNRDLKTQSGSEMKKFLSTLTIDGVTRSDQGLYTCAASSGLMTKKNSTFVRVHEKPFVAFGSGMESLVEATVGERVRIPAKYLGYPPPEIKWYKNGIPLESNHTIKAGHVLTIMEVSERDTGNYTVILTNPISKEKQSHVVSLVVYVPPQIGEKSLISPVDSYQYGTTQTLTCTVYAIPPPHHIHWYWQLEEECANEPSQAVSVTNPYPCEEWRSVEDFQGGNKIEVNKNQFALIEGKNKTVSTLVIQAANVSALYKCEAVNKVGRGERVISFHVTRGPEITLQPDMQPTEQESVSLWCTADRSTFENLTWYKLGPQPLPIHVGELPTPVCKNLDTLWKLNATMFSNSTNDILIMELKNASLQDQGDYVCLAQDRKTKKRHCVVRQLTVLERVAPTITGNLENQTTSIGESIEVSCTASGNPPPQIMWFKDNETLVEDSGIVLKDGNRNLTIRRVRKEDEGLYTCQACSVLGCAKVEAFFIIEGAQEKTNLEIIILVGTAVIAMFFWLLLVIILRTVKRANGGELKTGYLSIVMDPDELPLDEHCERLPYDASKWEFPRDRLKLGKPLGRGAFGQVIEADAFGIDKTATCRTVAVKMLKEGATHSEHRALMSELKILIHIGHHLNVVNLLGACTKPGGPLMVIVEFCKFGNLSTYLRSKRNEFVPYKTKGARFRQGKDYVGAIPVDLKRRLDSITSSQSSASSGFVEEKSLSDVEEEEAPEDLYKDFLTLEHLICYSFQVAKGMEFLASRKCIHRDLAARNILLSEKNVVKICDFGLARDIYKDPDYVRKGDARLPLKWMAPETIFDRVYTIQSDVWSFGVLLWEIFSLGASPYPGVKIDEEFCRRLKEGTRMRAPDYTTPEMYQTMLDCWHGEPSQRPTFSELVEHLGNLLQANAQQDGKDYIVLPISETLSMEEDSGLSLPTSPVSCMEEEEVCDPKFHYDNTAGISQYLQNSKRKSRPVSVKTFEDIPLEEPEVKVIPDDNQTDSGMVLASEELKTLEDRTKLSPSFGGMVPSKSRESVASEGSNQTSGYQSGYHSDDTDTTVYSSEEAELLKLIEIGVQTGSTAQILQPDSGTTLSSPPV", "test": "Inhibition of KDR"}, "Blood": {"system": "Blood", "test": "Antiinflammatory activity in mouse whole blood assessed as inhibition of LPS-induced TNFalpha release treated for 45 mins before LPS challenge measured after 6 hrs by ELISA", "type": "functional, tissue-based"}, "[30]": {"target": "T1, Vascular endothelial growth factor receptor 2", "settings": "10 uM", "description": "Inhibition of KDR at 10 uM"}}, "note": "Activity calls are given as the source filed them. The calls are words filed in the database; no cut-off is given here.", "data": [{"smiles": "CNc1nc2[nH]c(-c3cccc(CNC(=O)COC)n3)cc2c2c1ncn2C", "values": [{"measurement": "fraction unbound", "setting": "[1]", "value": 0.074}, {"measurement": "fraction unbound", "setting": "[2]", "value": 0.069}, {"measurement": "Cmax", "setting": "[3]", "value": 17.6, "unit": "µM"}, {"measurement": "Cmax", "setting": "[4]", "value": 10.3, "unit": "µM"}, {"measurement": "AUC", "setting": "[5]", "value": 50, "unit": "µM·h"}, {"measurement": "half-life", "setting": "[6]", "value": 198, "unit": "min"}, {"measurement": "clearance", "setting": "[7]", "value": 52, "unit": "mL/min/kg"}, {"measurement": "Vd", "setting": "[8]", "value": 0.5, "unit": "L/kg"}, {"measurement": "Vd", "setting": "[9]", "value": 0.6, "unit": "L/kg"}, {"measurement": "bioavailability", "setting": "[10]", "value": 79, "unit": "%"}, {"measurement": "bioavailability", "setting": "[11]", "value": 72, "unit": "%"}, {"measurement": "AUC at 8 h", "setting": "[12]", "value": 13, "unit": "µM·h"}, {"measurement": "AUC at 8 h", "setting": "[13]", "value": 16, "unit": "µM·h"}, {"measurement": "AUC at 8 h", "setting": "[14]", "value": 18, "unit": "µM·h"}, {"measurement": "AUC at 8 h", "setting": "[15]", "value": 81, "unit": "µM·h"}, {"measurement": "AUC at 8 h", "setting": "[16]", "value": 1170, "unit": "µM·h"}, {"measurement": "Activity", "setting": "Mus musculus [17]", "value": "Dose-dependent effect"}, {"measurement": "Activity", "setting": "Mus musculus [18]", "value": "Dose-dependent effect"}, {"measurement": "Activity", "setting": "Mus musculus [19]", "value": "Active"}, {"measurement": "Activity", "setting": "Mus musculus [20]", "value": 10, "unit": "%"}, {"measurement": "IC50", "setting": "PBMC", "value": 150, "unit": "nM"}, {"measurement": "inhibition at 30 µM", "setting": "hERG (KCNH2)", "value": 18, "unit": "%"}, {"measurement": "IC50", "setting": "Cytochrome P450 1A2", "value": "> 40", "unit": "µM"}, {"measurement": "IC50", "setting": "Cytochrome P450 2D6", "value": "> 40", "unit": "µM"}, {"measurement": "IC50", "setting": "Cytochrome P450 2C19", "value": "> 40", "unit": "µM"}, {"measurement": "IC50", "setting": "Cytochrome P450 3A4", "value": "> 40", "unit": "µM"}, {"measurement": "IC50", "setting": "Cytochrome P450 2C9", "value": 25, "unit": "µM"}, {"measurement": "inhibition", "setting": "[21]", "value": "> 75", "unit": "%"}, {"measurement": "inhibition", "setting": "[22]", "value": "> 75", "unit": "%"}, {"measurement": "inhibition", "setting": "[23]", "value": "> 75", "unit": "%"}, {"measurement": "inhibition", "setting": "[24]", "value": "> 75", "unit": "%"}, {"measurement": "inhibition", "setting": "[25]", "value": "> 75", "unit": "%"}, {"measurement": "Activity", "setting": "Mus musculus [26]", "value": 1, "unit": "cm"}, {"measurement": "Activity", "setting": "Mus musculus [27]", "value": "Active"}, {"measurement": "Activity", "setting": "Mus musculus [28]", "value": "Active"}, {"measurement": "IC50", "setting": "Ephrin type-A receptor 1", "value": 686, "unit": "nM"}, {"measurement": "IC50", "setting": "Ephrin type-B receptor 1", "value": 1110, "unit": "nM"}, {"measurement": "IC50", "setting": "[29]", "value": 1490, "unit": "nM"}, {"measurement": "IC50", "setting": "Blood", "value": 1200, "unit": "nM"}, {"measurement": "inhibition", "setting": "[30]", "value": "> 75", "unit": "%"}]}]}
